Where “and” joins values, the source holds several entries; their conditions need not be identical. Equal entries are not always repeated.
Assay: Pharmacokinetic evaluation of liquid bevirimat dosage forms, oral gavage, male Cynomolgus monkeys
Protocol: Six male Cynomolgus monkeys having an initial body weight of about 3.5 to about 4.5 kg are allowed 7 days to acclimate to their individual housing units. Monkeys are supplied with water and a commercial diet ad libitum prior to the study initiation. Food is withheld from the monkeys for a minimum of twelve hours before the study and during the study until four hours postdose when food is returned. Water is supplied ad libitum.
Test formulations are administered to the monkeys at time 0 on appropriate days. Test formulations will be dosed orally via oral gavage or intravenously.
Samples are drawn at the frequencies indicated below. Each blood sample (0.5 mL) is collected from the monkey's saphenous vein via a butterfly catheter and placed into a chilled polypropylene tube containing sodium heparin as the anticoagulant. Blood samples are centrifuged at a temperature of 4° C. at a speed of 3,000 rpm for 15 minutes. All samples are maintained chilled throughout processing. Plasma is collected after centrifugation, pipetted into a 2-mL polypropylene microtube, and frozen on dry-ice pending analytical evaluation.

[1] = oral, 50 mg/monkey, PG/glycerin/Vitamin ETPGS/Tween80/Plasdone C15 formulation, individual monkey
[2] = oral, 50 mg/monkey, PG/glycerin/Vitamin ETPGS/ethanol formulation, individual monkey
[3] = oral, 200 mg/monkey, PG/glycerin/Vitamin ETPGS/ethanol formulation, individual monkey

## C=C(C)[C@@H]1CC[C@]2(C(=O)O)CC[C@]3(C)[C@H](CC[C@@H]4[C@@]5(C)CC[C@H](OC(=O)CC(C)(C)C(=O)O)C(C)(C)[C@@H]5CC[C@]43C)[C@@H]12 [Bevirimat, 3-O-(3′,3′-dimethylsuccinyl)betulinic acid]
male, cynomolgus monkey, in vivo, po, 200 mg/monkey, Plasma Concentration, PG/glycerin/Vitamin ETPGS/ethanol formulation, 6.0 hr, individual monkey
  concentration at 6 hr: 79400 ng/mL
male, cynomolgus monkey, in vivo, po, 200 mg/monkey, Plasma Concentration, PG/glycerin/Vitamin ETPGS/ethanol formulation, 8.0 hr, AVG
  concentration at 8 hr: 51300 ng/mL
male, cynomolgus monkey, in vivo, po, 200 mg/monkey, Plasma Concentration, PG/glycerin/Vitamin ETPGS/ethanol formulation, 8.0 hr, individual monkey
  concentration at 8 hr: 53400 ng/mL
male, cynomolgus monkey, in vivo, po, 200 mg/monkey, Plasma Concentration, PG/glycerin/Vitamin ETPGS/ethanol formulation, 12 hr, AVG
  concentration at 12 hr: 19600 ng/mL
male, cynomolgus monkey, in vivo, po, 200 mg/monkey, Plasma Concentration, PG/glycerin/Vitamin ETPGS/ethanol formulation, 12 hr, individual monkey
  concentration at 12 hr: 15600 ng/mL
male, cynomolgus monkey, in vivo, po, 200 mg/monkey, Plasma Concentration, PG/glycerin/Vitamin ETPGS/ethanol formulation, 24 hr, AVG
  concentration at 24 hr: 4840 ng/mL
male, cynomolgus monkey, in vivo, po, 200 mg/monkey, Plasma Concentration, PG/glycerin/Vitamin ETPGS/ethanol formulation, 48 hr, AVG
  concentration at 48 hr: 2620 ng/mL
male, cynomolgus monkey, in vivo, po, 200 mg/monkey, Plasma Concentration, PG/glycerin/Vitamin ETPGS/ethanol formulation, 72 hr, AVG
  concentration at 72 hr: 296 ng/mL
oral, 50 mg/monkey, PG/glycerin/Vitamin ETPGS/Tween80/Plasdone C15 formulation, 0.25 hr, individual monkey
  Plasma Concentration: 56.3 ng/mL and 67.8 ng/mL
oral, 50 mg/monkey, PG/glycerin/Vitamin ETPGS/Tween80/Plasdone C15 formulation, 0.50 hr, individual monkey
  Plasma Concentration: 409 ng/mL and 2660 ng/mL and 7590 ng/mL
oral, 50 mg/monkey, PG/glycerin/Vitamin ETPGS/Tween80/Plasdone C15 formulation, 1.0 hr, individual monkey
  Plasma Concentration: 1010 ng/mL and 17400 ng/mL and 56100 ng/mL
oral, 50 mg/monkey, PG/glycerin/Vitamin ETPGS/Tween80/Plasdone C15 formulation, 2.0 hr, individual monkey
  Plasma Concentration: 63500 ng/mL and 68500 ng/mL
oral, 50 mg/monkey, PG/glycerin/Vitamin ETPGS/Tween80/Plasdone C15 formulation, 6.0 hr, individual monkey
  Plasma Concentration: 36300 ng/mL and 29000 ng/mL
oral, 50 mg/monkey, PG/glycerin/Vitamin ETPGS/Tween80/Plasdone C15 formulation, 8.0 hr, individual monkey
  Plasma Concentration: 21800 ng/mL and 19000 ng/mL
oral, 50 mg/monkey, PG/glycerin/Vitamin ETPGS/Tween80/Plasdone C15 formulation, 12 hr, individual monkey
  Plasma Concentration: 9150 ng/mL and 6750 ng/mL
oral, 50 mg/monkey, PG/glycerin/Vitamin ETPGS/Tween80/Plasdone C15 formulation, 24 hr, individual monkey
  Plasma Concentration: 1490 ng/mL and 988 ng/mL
oral, 50 mg/monkey, PG/glycerin/Vitamin ETPGS/Tween80/Plasdone C15 formulation, 48 hr, individual monkey
  Plasma Concentration: 635 ng/mL and 174 ng/mL and 200 ng/mL
oral, 50 mg/monkey, PG/glycerin/Vitamin ETPGS/Tween80/Plasdone C15 formulation, 72 hr, individual monkey
  Plasma Concentration: BLOQ
[1]
  Cmax: 63500 ng/mL and 68500 ng/mL
  t1/2: 5.3 h and 5.4 h
oral, 50 mg/monkey, PG/glycerin/Vitamin ETPGS/ethanol formulation, 0.25 hr, individual monkey
  Plasma Concentration: BLOQ
oral, 50 mg/monkey, PG/glycerin/Vitamin ETPGS/ethanol formulation, 0.50 hr, individual monkey
  Plasma Concentration: 268 ng/mL and 420 ng/mL and 49.7 ng/mL
oral, 50 mg/monkey, PG/glycerin/Vitamin ETPGS/ethanol formulation, 1.0 hr, individual monkey
  Plasma Concentration: 40200 ng/mL and 23100 ng/mL
oral, 50 mg/monkey, PG/glycerin/Vitamin ETPGS/ethanol formulation, 2.0 hr, individual monkey
  Plasma Concentration: 70800 ng/mL
oral, 50 mg/monkey, PG/glycerin/Vitamin ETPGS/ethanol formulation, 4.0 hr, individual monkey
  Plasma Concentration: 33200 ng/mL and 59800 ng/mL
oral, 50 mg/monkey, PG/glycerin/Vitamin ETPGS/ethanol formulation, 6.0 hr, individual monkey
  Plasma Concentration: 18100 ng/mL and 14000 ng/mL and 37000 ng/mL
oral, 50 mg/monkey, PG/glycerin/Vitamin ETPGS/ethanol formulation, 8.0 hr, individual monkey
  Plasma Concentration: 10600 ng/mL and 10000 ng/mL and 23600 ng/mL
oral, 50 mg/monkey, PG/glycerin/Vitamin ETPGS/ethanol formulation, 12 hr, individual monkey
  Plasma Concentration: 3390 ng/mL and 3450 ng/mL and 9100 ng/mL
oral, 50 mg/monkey, PG/glycerin/Vitamin ETPGS/ethanol formulation, 24 hr, individual monkey
  Plasma Concentration: 922 ng/mL and 1100 ng/mL and 2000 ng/mL
oral, 50 mg/monkey, PG/glycerin/Vitamin ETPGS/ethanol formulation, 48 hr, individual monkey
  Plasma Concentration: 62.6 ng/mL and 97.8 ng/mL and 286 ng/mL
oral, 50 mg/monkey, PG/glycerin/Vitamin ETPGS/ethanol formulation, 72 hr, individual monkey
  Plasma Concentration: BLOQ
[2]
  Cmax: 50500 ng/mL and 70800 ng/mL
  Dnzed AUCall: 33692 ng·h/mL/mg/kg
  t1/2: 7.0 h and 7.4 h
oral, 200 mg/monkey, PG/glycerin/Vitamin ETPGS/ethanol formulation, 0.25 hr, individual monkey
  Plasma Concentration: 1040 ng/mL and 89.0 ng/mL
oral, 200 mg/monkey, PG/glycerin/Vitamin ETPGS/ethanol formulation, 0.50 hr, individual monkey
  Plasma Concentration: 10300 ng/mL and 1740 ng/mL
oral, 200 mg/monkey, PG/glycerin/Vitamin ETPGS/ethanol formulation, 1.0 hr, individual monkey
  Plasma Concentration: 88400 ng/mL and 41200 ng/mL
oral, 200 mg/monkey, PG/glycerin/Vitamin ETPGS/ethanol formulation, 2.0 hr, individual monkey
  Plasma Concentration: 232000 ng/mL
oral, 200 mg/monkey, PG/glycerin/Vitamin ETPGS/ethanol formulation, 4.0 hr, individual monkey
  Plasma Concentration: 138000 ng/mL
oral, 200 mg/monkey, PG/glycerin/Vitamin ETPGS/ethanol formulation, 6.0 hr, individual monkey
  Plasma Concentration: 76300 ng/mL
oral, 200 mg/monkey, PG/glycerin/Vitamin ETPGS/ethanol formulation, 12 hr, individual monkey
  Plasma Concentration: 23700 ng/mL
oral, 200 mg/monkey, PG/glycerin/Vitamin ETPGS/ethanol formulation, 24 hr, individual monkey
  Plasma Concentration: 2180 ng/mL and 7500 ng/mL
oral, 200 mg/monkey, PG/glycerin/Vitamin ETPGS/ethanol formulation, 48 hr, individual monkey
  Plasma Concentration: 547 ng/mL and 4700 ng/mL
oral, 200 mg/monkey, PG/glycerin/Vitamin ETPGS/ethanol formulation, 72 hr, individual monkey
  Plasma Concentration: 117 ng/mL and 474 ng/mL
[3]
  AUCall: 1398.863 µg·h/mL
  Cmax: 232000 ng/mL
  Dnzed AUCall: 27977 ng·h/mL/mg/kg
  t1/2: 10.1 h

From patent US20100216751A1 (priority 2007, published 2010)
